{"source": "paper PMC4790384", "about": "“Position-Dependent Influence of the Three Trp Residues on the Membrane Activity of the Antimicrobial Peptide, Tritrpticin” (Antibiotics, 2014)", "note": "Ends that are not written are not given here."}
{"tested_on": "E. coli ATCC 25922", "format": "cell-based, Escherichia coli", "description": "The minimum inhibitory concentration (MIC) of Tritrp1 and its Trp-substituted analogs against E. coli ATCC 25922 was measured by the standard broth microdilution method. Bacteria (5 × 10^5 CFU/mL) were incubated overnight at 37 °C in Mueller-Hinton broth (MHB) and in the presence of peptides diluted in a two-fold concentration series ranging from 0.25–128 µM in a 96-well polypropylene plate. The reported MIC values correspond to the minimum peptide concentration where bacterial growth was not observed. After overnight incubation, 10 µL from the first three wells without bacterial growth for each peptide in the MIC plate were diluted 1:10^6 in MHB, and 100 µL of this dilution was plated in MHB-agar. After incubation overnight at 37 °C, the minimum bactericidal concentration (MBC) was reported as the minimum peptide concentration where no colony formation was detected.", "units": {"MBC": "µM", "MIC": "µM"}}
{"compound": "CC(C)C[C@H](NC(=O)[C@H](Cc1ccccc1)NC(=O)[C@@H]1CCCN1C(=O)[C@H](Cc1c[nH]c2ccccc12)NC(=O)[C@H](Cc1c[nH]c2ccccc12)NC(=O)[C@H](Cc1c[nH]c2ccccc12)NC(=O)[C@@H]1CCCN1C(=O)[C@H](Cc1ccccc1)NC(=O)[C@H](CCCNC(=N)N)NC(=O)[C@H](CCCNC(=N)N)NC(=O)[C@@H](N)C(C)C)C(=O)N[C@@H](CCCNC(=N)N)C(=O)N[C@@H](CCCNC(=N)N)C(N)=O", "note": "[Tritrp1, reference compound]", "MBC": 4, "MIC": 4}
{"compound": "VRRFPAAAPFLRR-NH2 [A-Tritrp]", "MBC": ">128", "MIC": ">128"}
{"compound": "VRRFPAAWPFLRR-NH2 [Peptide W67A]", "MBC": "64 to 128", "MIC": "64 to 128"}
{"compound": "VRRFPAWAPFLRR-NH2 [Peptide W68A]", "MBC": "64 to 128", "MIC": "64 to 128"}
{"compound": "VRRFPAWWPFLRR-NH2 [Peptide W6A]", "MBC": "32 to 64", "MIC": "32 to 64"}
{"compound": "VRRFPWAAPFLRR-NH2 [Peptide W78A]", "MBC": "64 to 128", "MIC": "64 to 128"}
{"compound": "VRRFPWAWPFLRR-NH2 [Peptide W7A]", "MBC": 16, "MIC": 16}
{"compound": "VRRFPWWAPFLRR-NH2 [Peptide W8A]", "MBC": 8, "MIC": 8}
{"compound": "VRRFPWWYPFLRR-NH2 [Peptide W8Y]", "MBC": 4, "MIC": 4}
{"compound": "VRRFPWYWPFLRR-NH2 [Peptide W7Y]", "MBC": 8, "MIC": 8}
{"compound": "VRRFPWYYPFLRR-NH2 [Peptide W78Y]", "MBC": 16, "MIC": 16}
{"compound": "VRRFPYWWPFLRR-NH2 [Peptide W6Y]", "MBC": 16, "MIC": 16}
{"compound": "VRRFPYWYPFLRR-NH2 [Peptide W68Y]", "MBC": 16, "MIC": 16}
{"compound": "VRRFPYYWPFLRR-NH2 [Peptide W67Y]", "MBC": 32, "MIC": 32}
{"compound": "VRRFPYYYPFLRR-NH2 [Y-Tritrp]", "MBC": "16 to 32"}
